In publication PMC3210109, “Flexible catalytic site conformations implicated in modulation of HIV-1 protease autoprocessing reactions” (Retrovirology, 2011):

Key:
[1] = system: embedded protease of GST-M2-PR (tagless precursor); assay: P site cleavage reaction, tagless precursor GST-M2-PR; assay type: cell-based, HIV-1; parameters: dose or concentration left out as unconfirmed; settings: […] nM darunavir
Source text: To examine whether different amino acid sequences fused to the C-terminus of PR influence protease autoprocessing, we engineered a panel of fusion precursors carrying different C-terminal epitopes (Figure 5A). A truncated version of M2 p6* (Figure 2A) was used to allow focused examination of the P site cleavage reaction. We also constructed GST-M2-PR, a precursor lacking any C-terminal epitope, to serve as a reference control.
HEK293T cells (ATCC, Manassas, VA) were maintained in DMEM containing 10% fetal bovine serum and penicillin/streptomycin (0.6% Penicillin G sodium salt, 1.0% Streptomycin sulfate, 0.85% NaCl). Plasmid DNA was transfected into HEK293T cells using calcium phosphate as previously described [25, 46]. Briefly, HEK293T cells were seeded in 12-well plates the day before transfection to achieve 50~60% confluence at the time of transfection. About 1 h prior to transfection, chloroquine was added into each well to a final concentration of 25 μM. A total of 0.5 μg plasmid DNA in 65.7 μl H2O was mixed with 9.3 μl of 2 M CaCl2. […]
(§1) For quantification of protein intensity, Western blot images captured by an Odyssey infrared dual laser scanning unit were analyzed using TotalLab software (Nonlinear Dynamics Inc.). The total pixel volume of each band was quantified and normalized; the highest value was arbitrarily set at 1000.

[2] = target: T1, PR^NL H69D precursor (Human immunodeficiency virus type 1 group M subtype B, UniProt P12497, H557D); assay type: cell-based, HIV-1; settings: darunavir, Figure 2F
T1 construct: expressed in transfected cells; host or cells: HEK293T
Procedure: (§2) HEK293T cells (ATCC, Manassas, VA) were maintained in DMEM containing 10% fetal bovine serum and penicillin/streptomycin (0.6% Penicillin G sodium salt, 1.0% Streptomycin sulfate, 0.85% NaCl). Plasmid DNA was transfected into HEK293T cells using calcium phosphate as previously described [25, 46]. Briefly, HEK293T cells were seeded in 12-well plates the day before transfection to achieve 50~60% confluence at the time of transfection. About 1 h prior to transfection, chloroquine was added into each well to a final concentration of 25 μM. A total of 0.5 μg plasmid DNA in 65.7 μl H2O was mixed with 9.3 μl of 2 M CaCl2. Then 75 μl of 2xHBS (50 mM Hepes, pH7.04~7.05, 10 mM KCl, 12 mM Dextrose, 280 mM NaCl, 1.5 mM Na2HPO4) was added to the DNA-Ca mixture followed by gentle agitation. The resulting mixture was directly added drop-wise to each well. […] After 7-8 h incubation at 37°C, 5% CO2, the transfection medium was replaced with fresh chloroquine-free medium containing the corresponding protease inhibitors. […]
as §1

[3] = target: embedded protease of GST-p6*-PR^NL-HA / GST-M1-PR^NL-HA fusion precursor (proximal site) (Human immunodeficiency virus type 1, UniProt P12497); assay: P site cleavage reaction mediated by the embedded protease, PR^NL fusion precursor, HEK293T cells; assay type: cell-based, HIV-1; settings: darunavir; embedded vs released protease
Procedure: as §2, §1

[4] = system: mature protease; settings: ref [40],[41]; cited from earlier work
[5] = system: HIV-1 infected cells (p24 production); settings: ref [40],[41], read-out: IC50 to inhibit the production of p24; cited from earlier work
[6] = system: in vitro translated Gag-Pol precursor; parameters: method as in PMID 15280456; settings: ref [21]; cited from earlier work

Compound	suppression of the cleavage reaction, tagless precursor [1]	suppression of autoprocessing reactions mediated by the embedded H69D PR [2]	effect of treatment on the amount of the released proteases (H69D) ([2]; PR^NL H69D precursor)	embedded protease less sensitive to inhibition than the corresponding released protease [3]	affinity for the catalytic site of the mature protease [4]	IC50 [5] [nM]	sensitivity of Gag-Pol precursor to inhibition compared to the mature protease [6]
CC(C)CN(C[C@@H](O)[C@H](Cc1ccccc1)NC(=O)O[C@H]1CO[C@H]2OCC[C@H]21)S(=O)(=O)c1ccc(N)cc1 [darunavir]	not suppressed	not suppressed	did not increase	at least 100 fold	low nanomolar	~5	
CC(C)c1nc(CN(C)C(=O)N[C@H](C(=O)N[C@@H](Cc2ccccc2)C[C@H](O)[C@H](Cc2ccccc2)NC(=O)OCc2cncs2)C(C)C)cs1 [ritonavir]							significantly low sensitivity
